Measurements as given in PubChem BioAssay AID1918998 (Molecular Pharmacology Branch, DTP, NCI, 2023).

Test system: 521955-158-R2-J5-PDC complex spheroid growth
Test: Anticancer human tumor 521955-158-R2-J5-PDC patient-derived pancreatic carcinoma cell line growth inhibition [AhR]
Conditions: for IC50: curve of first compound; for viability, T/C: stronger effect = lower value
Summary of the method: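 Complex tumor spheroids co-cultured with HUVEC and human MSC stroma; AhR antagonists tested in combination with standard-of-care and investigational agents. Top concentration at or near clinical Cmax (else 10 microM), half-log dilutions; growth expressed as percent test/control.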

[1] = second compound 0.1 µM, first compound 0.000949 µM
[2] = second compound 0.1 µM, first compound 0.003 µM
[3] = second compound 0.1 µM, first compound 0.00949 µM
[4] = second compound 0.1 µM, first compound 0.03 µM
[5] = second compound 0.1 µM, first compound 0.0949 µM
[6] = second compound 0.1 µM, first compound 0.3 µM
[7] = second compound 0.316 µM, first compound 0.000949 µM
[8] = second compound 0.316 µM, first compound 0.003 µM
[9] = second compound 0.316 µM, first compound 0.00949 µM
[10] = second compound 0.316 µM, first compound 0.03 µM
[11] = second compound 0.316 µM, first compound 0.0949 µM
[12] = second compound 0.316 µM, first compound 0.3 µM
[13] = second compound 1 µM, first compound 0.000949 µM
[14] = second compound 1 µM, first compound 0.003 µM
[15] = second compound 1 µM, first compound 0.00949 µM
[16] = second compound 1 µM, first compound 0.03 µM
[17] = second compound 1 µM, first compound 0.0949 µM
[18] = second compound 1 µM, first compound 0.3 µM
[19] = second compound 3.16 µM, first compound 0.000949 µM
[20] = second compound 3.16 µM, first compound 0.003 µM
[21] = second compound 3.16 µM, first compound 0.00949 µM
[22] = second compound 3.16 µM, first compound 0.03 µM
[23] = second compound 3.16 µM, first compound 0.0949 µM
[24] = second compound 3.16 µM, first compound 0.3 µM
[25] = second compound 10 µM, first compound 0.000949 µM
[26] = second compound 10 µM, first compound 0.003 µM
[27] = second compound 10 µM, first compound 0.00949 µM
[28] = second compound 10 µM, first compound 0.03 µM
[29] = second compound 10 µM, first compound 0.0949 µM
[30] = second compound 10 µM, first compound 0.3 µM
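Throughout, for viability, T/C: spheroids mix tumor cells with HUVEC endothelium and human MSC stroma; luminescence taken as viability surrogate after a week of drug exposure.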

With `CC(C)CC(NC(=O)C(Cc1ccccc1)NC(=O)c1cnccn1)B(O)O` (stereo not given) + Cc1ccccc1N=Nc1ccc(NC(=O)c2ccnn2C)c(C)c1 the IC50 (second compound 0.1 µM) was 0.0161 µM, the IC50 (second compound 0.316 µM) was 0.0163 µM and the IC50 (second compound 1 µM) was 0.0173 µM. It also gave an IC50 (second compound 3.16 µM) of 0.0151 µM, an IC50 (second compound 10 µM) of 0.00876 µM and a viability, T/C [1] of 91.3%. For the same compound, the viability, T/C [2] was 77.6%, the viability, T/C [3] was 105% and the viability, T/C [4] was 0.49%. It also gave a viability, T/C [5] of 0.24%, a viability, T/C [6] of 1.83% and a viability, T/C [7] of 95.3%. It also gave a viability, T/C [8] of 89.4%, a viability, T/C [9] of 97.4% and a viability, T/C [10] of 0.67%. The viability, T/C [11] was 0.36%, the viability, T/C [12] was 0.41% and the viability, T/C [13] was 127%. For the same compound, the viability, T/C [14] was 99.8%, the viability, T/C [15] was 101% and the viability, T/C [16] was 2.56%. The viability, T/C [17] was 2.56%, the viability, T/C [18] was 0.41% and the viability, T/C [19] was 146%. It also gave a viability, T/C [20] of 119%, a viability, T/C [21] of 82.3% and a viability, T/C [22] of 1.3%. For the same compound, the viability, T/C [23] was 0.26%, the viability, T/C [24] was 0.34% and the viability, T/C [25] was 142%. The viability, T/C [26] was 153%, the viability, T/C [27] was 42.7% and the viability, T/C [28] was 1.3%. For the same compound, the viability, T/C [29] was 3.29% and the viability, T/C [30] was 0.52%.
Compound `CCc1c2c(nc3ccc(O)cc13)-c1cc3c(c(=O)n1C2)COC(=O)[C@]3(O)CC` + Cc1ccccc1N=Nc1ccc(NC(=O)c2ccnn2C)c(C)c1 has an IC50 (second compound 0.1 µM) of 0.00412 µM, an IC50 (second compound 0.316 µM) of 0.0048 µM and an IC50 (second compound 1 µM) of 0.00466 µM. For the same compound, the IC50 (second compound 3.16 µM) was 0.0064 µM, the IC50 (second compound 10 µM) was 0.0071 µM and the viability, T/C [1] was 65.2%. For the same compound, the viability, T/C [2] was 56%, the viability, T/C [3] was 36.5% and the viability, T/C [4] was 27%. It also gave a viability, T/C [5] of 18.6%, a viability, T/C [6] of 13.8% and a viability, T/C [7] of 74.3%. It also gave a viability, T/C [8] of 60.9%, a viability, T/C [9] of 34.1% and a viability, T/C [10] of 22.3%. The viability, T/C [11] was 17%, the viability, T/C [12] was 12.9% and the viability, T/C [13] was 91.7%. For the same compound, the viability, T/C [14] was 61.8%, the viability, T/C [15] was 30.2% and the viability, T/C [16] was 23.2%. For the same compound, the viability, T/C [17] was 17.5%, the viability, T/C [18] was 14.3% and the viability, T/C [19] was 95.3%. For the same compound, the viability, T/C [20] was 78.3%, the viability, T/C [21] was 33.9% and the viability, T/C [22] was 23.5%. For the same compound, the viability, T/C [23] was 15.3%, the viability, T/C [24] was 11.7% and the viability, T/C [25] was 114%. For the same compound, the viability, T/C [26] was 89.8%, the viability, T/C [27] was 35.1% and the viability, T/C [28] was 24.1%. The viability, T/C [29] was 16.2% and the viability, T/C [30] was 11.5%.
With `COc1cc(Nc2ncc3c(n2)-c2ccc(Cl)cc2C(c2c(F)cccc2OC)=NC3)ccc1C(=O)O` + Cc1ccccc1N=Nc1ccc(NC(=O)c2ccnn2C)c(C)c1 the IC50 (second compound 0.1 µM) was > 10 µM, the IC50 (second compound 0.316 µM) was > 10 µM and the IC50 (second compound 1 µM) was > 10 µM. The IC50 (second compound 3.16 µM) was > 10 µM, the IC50 (second compound 10 µM) was > 10 µM and the viability, T/C (second compound 0.1 µM, first compound 0.0316 µM) was 81.3%. It also gave a viability, T/C (second compound 0.1 µM, first compound 0.1 µM) of 76%, a viability, T/C (second compound 0.1 µM, first compound 0.316 µM) of 69.8% and a viability, T/C (second compound 0.1 µM, first compound 1 µM) of 68.1%. For the same compound, the viability, T/C (second compound 0.1 µM, first compound 3.16 µM) was 63.8%, the viability, T/C (second compound 0.1 µM, first compound 10 µM) was 48.5% and the viability, T/C (second compound 0.316 µM, first compound 0.0316 µM) was 89.5%. The viability, T/C (second compound 0.316 µM, first compound 0.1 µM) was 79.9%, the viability, T/C (second compound 0.316 µM, first compound 0.316 µM) was 72.4% and the viability, T/C (second compound 0.316 µM, first compound 1 µM) was 60.2%. It also gave a viability, T/C (second compound 0.316 µM, first compound 3.16 µM) of 71.4%, a viability, T/C (second compound 0.316 µM, first compound 10 µM) of 55.4% and a viability, T/C (second compound 1 µM, first compound 0.0316 µM) of 109%. For the same compound, the viability, T/C (second compound 1 µM, first compound 0.1 µM) was 69.8%, the viability, T/C (second compound 1 µM, first compound 0.316 µM) was 74.3% and the viability, T/C (second compound 1 µM, first compound 1 µM) was 58.9%. The viability, T/C (second compound 1 µM, first compound 3.16 µM) was 62.1%, the viability, T/C (second compound 1 µM, first compound 10 µM) was 53.9% and the viability, T/C (second compound 3.16 µM, first compound 0.0316 µM) was 98.6%. For the same compound, the viability, T/C (second compound 3.16 µM, first compound 0.1 µM) was 77%, the viability, T/C (second compound 3.16 µM, first compound 0.316 µM) was 68.3% and the viability, T/C (second compound 3.16 µM, first compound 1 µM) was 74.2%. The viability, T/C (second compound 3.16 µM, first compound 3.16 µM) was 74.7%, the viability, T/C (second compound 3.16 µM, first compound 10 µM) was 71.4% and the viability, T/C (second compound 10 µM, first compound 0.0316 µM) was 122%. It also gave a viability, T/C (second compound 10 µM, first compound 0.1 µM) of 96.1%, a viability, T/C (second compound 10 µM, first compound 0.316 µM) of 94.6% and a viability, T/C (second compound 10 µM, first compound 1 µM) of 88.5%. It also gave a viability, T/C (second compound 10 µM, first compound 3.16 µM) of 83.4% and a viability, T/C (second compound 10 µM, first compound 10 µM) of 90.7%.
